Drawing on US20010049374A1 (priority 1997, published 2001), this text covers IC50 for 60 substances.

In the first assay the target is T1, urokinase enzyme Abbokinase (Homo sapiens, UniProt P00749).
T1 construct: purchased Abbott Laboratories, Abbott Park, Ill
Put plainly: Determination of urokinase inhibition (Abbokinase, chromogenic substrate S-2444). The assay is classed as biochemical. As to conditions: Inhibitory potency against urokinase; substrate S-2444 at 200 μM, enzyme 2-3 nM, pH 7.4, 405 nm; read-out: IC50.
The term IC50 denotes the concentration needed to halve the response being measured. Take “1,1-Dimethylethyl [4- [[(6-aminoiminomethyl-2-naphthalenyl)amino]carbonyl]phenyl]carbamate [Example 76]”: the IC50 was 960 nM.
For the substance “1,1-dimethylethyl [2-[3-[6-(aminoiminomethyl)-2-naphathalenyl]ethynyl]-6-methoxyphenyl]ethyl]carbamate [Example 122]”, the IC50 is 330 nM.
In the case of “1,1-dimethylethyl [[4-[[[6-(aminoiminomethyl)-2-naphathalenyl]amino]carbonyl]phenyl]methyl]carbamate [Example 135]”, the IC50 was 1910 nM.
Take “1-[(7-Aminoiminomethyl-2-methoxy-1-naphthalenyl)oxy]-3-hydroxypropane [Example 10]”: the IC50 was 3200 nM.
For the substance “1-[(7-Aminoiminomethyl-2-methoxy-1-naphthalenyl)oxy]-3-phenylpropane [Example 23]”, the IC50 stood at 4000 nM.
As for “1-[(7-aminoiminomethyl-2-methoxy-1-naphthalenyl)oxy]-3-bromopropane [Example 21]”, the IC50 stood at 1700 nM.
Still for that read-out and setting: under “2-[(7-Aminoiminomethyl-3-methoxy-1-naphthalenyl)oxy]acetamide [Example 39]” stands 12200 nM; under “3-[(7-Aminoiminomethyl-2-methoxy-1-naphthalenyl)oxy]propene [Example 22]”, 1700 nM.
Take “4-Amino-N-[3-(6-aminoiminomethyl-2-naphthalenyl)-2-propynyl]benzamide [Example 36]”: the IC50 stood at 1750 nM.
“4-[7-(Aminoiminomethyl)-2-methoxy-1-naphthalenyl]dihydro-2(3H)-furanone [Example 85]”: the IC50 was 1380 nM.
For the substance “4-[(6-Aminoiminomethyl-2-naphthalenyl)oxy]-N-methylbenzeneacetamide [Example 56]”, the IC50 was determined as 2900 nM.
“4-[[6-(aminoiminomethyl)-2-naphthalenyl]ethynyl]-L-phenylalanine [Example 109]”: the IC50 worked out at 2850 nM.
“4-[[[7-(aminoiminomethyl)-1-(2-pyrimidinylamino)-2-naphthalenyl]oxy]methyl]benzoic acid [Example 134]”: the IC50 was 64 nM.
“5-[[6-(aminoiminomethyl)-2-naphthalenyl]oxy]pentanoic acid [Example 129]”: the IC50 came out at 4840 nM.
As to “6-(aminoiminomethyl)-4-(3-furanyl)-N-(1H-pyrazol-3-yl)-2-naphthalenecarboxamide [Example 116]”, the IC50 came to 45 nM.
On to “6-(aminoiminomethyl)-4-(3-furanyl)-N-(2-pyridinyl)-2-naphthalenecarboxamide [Example 146]”, for which the IC50 was determined as 372 nM.
Take “6-(aminoiminomethyl)-4-(3-furanyl)-N-(3-pyridinyl)-2-naphthalenecarboxamide [Example 117]”: the IC50 was determined as 278 nM.
Regarding “6-(aminoiminomethyl)-4-(3-furanyl)-N-(4-pyridinyl)-2-naphthalenecarboxamide [Example 115]”, the IC50 turned out to be 63 nM.
For “6-(aminoiminomethyl)-4-(3-furanyl)-N-[4-(trifluoromethyl)phenyl]-2-naphthalenecarboxamide [Example 114]”, the IC50 worked out at 344 nM.
Turning to “6-(aminoiminomethyl)-4-(3-furanyl)-N-phenyl-2-naphthalenecarboxamide [Example 152]”, the IC50 turned out to be 83 nM.
Take “6-(aminoiminomethyl)-4-[1-(methylsulfonyl)-1H-pyrazol-4-yl]-N-phenyl-2-naphthalenecarboxamide [Example 153]”: the IC50 came to 877 nM.
In the case of “6-(aminoiminomethyl)-4-[5-(ethylsulfonyl)-3-furanyl]-N-phenyl-2-naphthalenecarboxamide [Example 227]”, the IC50 was 15 nM.
“6-(aminoiminomethyl)-4-[5-(ethylthio)-3-furanyl]-N-phenyl-2-naphthalenecarboxamide [Example 200]”: the IC50 was 37 nM.
Turning to “6-(aminoiminomethyl)-4-[5-(methoxymethyl)-3-furanyl]-N-phenyl-2-naphthalenecarboxamide [Example 230]”, the IC50 stood at 103 nM.
As for “6-(aminoiminomethyl)-4-[5-(methylsulfonyl)-3-furanyl]-N-phenyl-2-naphthalenecarboxamide [Example 231]”, the IC50 is 15 nM.
On to “6-(aminoiminomethyl)-4-[5-(propylsulfonyl)-3-furanyl]-N-phenyl-2-naphthalenecarboxamide [Example 228]”, for which the concentration for half-maximal inhibition (IC50) came out at 25 nM.
As for “6-(aminoiminomethyl)-N-(1,2,3,4-tetrahydro-6-quinolinyl)-2-naphthalenecarboxamide [Example 147]”, the IC50 was 213 nM.
On to “6-(aminoiminomethyl)-N-(1,3-benzodioxol-5-yl)-2-naphthalenecarboxamide [Example 188]”, for which the IC50 is 220 nM.
As to “6-(aminoiminomethyl)-N-(1, 2, 3, 4-tetrahydro-2, 4-dioxo5-pyrimidinyl)-2-naphthalenecarboxamide [Example 189]”, the half-inhibitory concentration (IC50) came to 1300 nM.
Still for that read-out and setting: in the case of “6-(aminoiminomethyl)-N-(1H-imidazolyl)-2-naphthalenecarboxamide [Example 214]” it was 2560 nM; in that of “6-(aminoiminomethyl)-N-(1H-indazol-5-yl)-2-naphthalenecarboxamide [Example 204]”, 331 nM.
For “6-(aminoiminomethyl)-N-(1H-indazol-6-yl)-2-naphthalenecarboxamide [Example 203]”, the IC50 amounted to 624 nM.
Take “6-(aminoiminomethyl)-N-(1H-indol-5-yl)-2-naphthalenecarboxamide [Example 205]”: the IC50 came to 337 nM.
Regarding “6-(aminoiminomethyl)-N-(1H-pyrazol-3-yl)-2-naphthalenecarboxamide [Example 191]”, the IC50 was found to be 887 nM.
Regarding “6-(aminoiminomethyl)-N-(2,3-dihydro-1H-inden-5-yl)-2-naphthalenecarboxamide [Example 118]”, the IC50 came to 121 nM.
In the case of “6-(aminoiminomethyl)-N-(2-methyl-6-quinolinyl)-2-naphthalenecarboxamide [Example 217]”, the IC50 was 670 nM.
With “6-(aminoiminomethyl)-N-(2-naphthalenyl)-2-naphthalenecarboxamide [Example 143]”, the IC50 stood at 360 nM.
As to “6-(aminoiminomethyl)-N-(2-thiazolyl)-2-naphthalenecarboxamide [Example 186]”, the IC50 is 2980 nM.
In the case of “6-(aminoiminomethyl)-N-(3, 4, 5-trimethoxyphenyl)-2-naphthalenecarboxamide [Example 195]”, the IC50 turned out to be 1300 nM.
In the case of “6-(aminoiminomethyl)-N-(3, 5-difluorophenyl)-2-naphthalenecarboxamide [Example 190]”, the IC50 is 565 nM.
With “6-(aminoiminomethyl)-N-(3-ethoxyphenyl)-2-naphthalenecarboxamide [Example 223]”, the IC50 worked out at 70 nM.
Take “6-(aminoiminomethyl)-N-(3-methyl-2-pyridinyl)-2-naphthalenecarboxamide [Example 196]”: the IC50 was 620 nM.
Consider “6-(aminoiminomethyl)-N-(3-phenoxyphenyl)-2-naphthalenecarboxamide [Example 221]”, for which the IC50 was 520 nM.
Take “6-(aminoiminomethyl)-N-(3-propoxyphenyl)-2-naphthalenecarboxamide [Example 218]”: the IC50 was determined as 86 nM.
As to “6-(aminoiminomethyl)-N-(3-pyridazinyl)-2-naphthalenecarboxamide [Example 209]”, the IC50 was 820 nM.
Turning to “6-(aminoiminomethyl)-N-(4-ethylphenyl)-2-naphthalenecarboxamide [Example 142]”, the IC50 amounted to 540 nM.
On the same count and under the same terms, under “6-(aminoiminomethyl)-N-(4-methyl-2-thiazolyl)-2-naphthalenecarboxamide [Example 199]” stands 2300 nM.
On to “6-(aminoiminomethyl)-N-(4-methylphenyl)-2-naphthalenecarboxamide [Example 132]”, for which the IC50 was 960 nM.
“6-(aminoiminomethyl)-N-(4-nitrophenyl)-2-naphthalenecarboxamide [Example 224]”: the IC50 is 1770 nM.
As for “6-(aminoiminomethyl)-N-(5-bromo-2-pyridinyl)-2-naphthalenecarboxamide [Example 210]”, the half-inhibitory concentration (IC50) stood at 780 nM.
Consider “6-(aminoiminomethyl)-N-(5-methyl-2-pyridinyl)-2-naphthalenecarboxamide [Example 198]”, for which the IC50 stood at 504 nM.
Take “6-(aminoiminomethyl)-N-(5-pyrimidinyl)-2-naphthalenecarboxamide [Example 208]”: the IC50 was 960 nM.
For the substance “6-(aminoiminomethyl)-N-(6-methoxy-3-pyridinyl)-2-naphthalenecarboxamide [Example 187]”, the IC50 was determined as 613 nM.
For “6-(aminoiminomethyl)-N-(6-methyl-2-pyridinyl)-2-naphthalenecarboxamide [Example 194]”, the IC50 worked out at 560 nM.
For the substance “6-(aminoiminomethyl)-N-(6-quinolinyl)-2-naphthalenecarboxamide [Example 202]”, the IC50 was found to be 792 nM.
Take “6-(aminoiminomethyl)-N-(pyrazinyl)-2-naphthalenecarboxamide [Example 193]”: the IC50 stood at 850 nM.
Consider “6-(aminoiminomethyl)-N-[3-(1-methylethoxy)phenyl]-2-naphthalenecarboxamide [Example 211]”, for which the IC50 stood at 72 nM.
“6-(aminoiminomethyl)-N-[3-(cyclopentyloxy)phenyl]-2-naphthalenecarboxamide [Example 220]”: the IC50 turned out to be 30 nM.

Still in this assay, the particulars now being: pH 7.4; read-out: IC50.
On to “6-(aminoiminomethyl)-N-[3-(1-ethylpropoxy)phenyl]-2-naphthalenecarboxamide [Example 219]”, for which the IC50 was 103 nM.
Turning to “6-(aminoiminomethyl)-N-[3-(cyclobutylmethoxy)phenyl]-2-naphthalenecarboxamide [Example 225]”, the IC50 was found to be 104 nM.
